Test results from paper PMC9977845 (2023).

Tests used:
[1] = tested on: B2; d(CGCTAGCG)2 (DNA, duplex) CGCTAGCG; test: UV-VIS titration, chemometric (PCA) Scatchard analysis; conditions: Na+ 10 mM (NaCl); 2.5 mM cacodylate pH 5.0; 0.01 mM ligand; microscopic constant
[2] = tested on: D4 (DNA, duplex) GGGTACCC; test: 1H NMR; conditions: Na+ 10 mM (NaCl), 2.5 mM cacodylate pH 5.0
D1 (DNA, duplex) CCCGGG = test: 1H NMR; conditions: Na+ 10 mM (NaCl); 2.5 mM cacodylate pH 5.0; intercalation at CG/CG
[3] = tested on: B3; D2; d(CGATATCG)2 (DNA, duplex) CGATATCG; test: UV-VIS titration, chemometric (PCA) Scatchard analysis; conditions: Na+ 10 mM (NaCl); 2.5 mM cacodylate pH 5.0; 0.01 mM ligand; microscopic constant
[4] = tested on: B1; d(CGGTACCG)2 (DNA, duplex) CGGTACCG; test: as above; conditions: Na+ 10 mM (NaCl); 2.5 mM cacodylate pH 5.0; 0.01 mM ligand; microscopic constant
[5] = tested on: B3; D2; d(CGATATCG)2 (DNA, duplex) CGATATCG; test: 2D NMR (NOESY) and restrained MD structure; conditions: Na+ 10 mM (NaCl); 2.5 mM cacodylate pH 5.0; 5 °C; intercalation at TA/TA
[6] = tested on: D8 (DNA, duplex) CTAGCTAG; test: 1H NMR; conditions: Na+ 10 mM (NaCl); 2.5 mM cacodylate pH 5.0; intercalation at TA/TA
[7] = tested on: D3; d(CCCTAGGG)2 (DNA, duplex) CCCTAGGG; test: 2D NMR (NOESY) and restrained MD structure; conditions: Na+ 10 mM (NaCl); 2.5 mM cacodylate pH 5.0; 5 °C; intercalation at TA/TA
[8] = tested on: D7 (DNA, duplex) GTACGTAC; test: 1H NMR; conditions: Na+ 10 mM (NaCl); 2.5 mM cacodylate pH 5.0; intercalation at TA/TA
[9] = tested on: B3; D2; d(CGATATCG)2 (DNA, duplex) CGATATCG; test: 1H NMR titration; conditions: Na+ 10 mM (NaCl), 2.5 mM cacodylate pH 5.0, unspecific
[10] = tested on: B4; d(CGTTAACG)2 (DNA, duplex) CGTTAACG; test: UV-VIS titration, chemometric (PCA) Scatchard analysis; conditions: Na+ 10 mM (NaCl); 2.5 mM cacodylate pH 5.0; 0.01 mM ligand; microscopic constant
[11] = tested on: B2; d(CGCTAGCG)2 (DNA, duplex) CGCTAGCG; test: 2D NMR (NOESY) and restrained MD structure; conditions: Na+ 10 mM (NaCl); 2.5 mM cacodylate pH 5.0; 5 °C; intercalation at TA/TA
[12] = unspecific, no intercalation site, duplex:ligand 1:1.5

**Q.** Which Dissociation constant [1] does the source give for `CCN(CC)CCNc1ccc2ncn3c4ccc(O)cc4c(=O)c1c23` here?
**A.** 0.260 µM

**Q.** And the binding ([2]; intercalation at TA/TA)?
**A.** yes

**Q.** What about the binding (D1 (DNA, duplex) CCCGGG) of the same compound?
**A.** yes

**Q.** What about the Dissociation constant [3] of the same compound?
**A.** 0.156 µM

**Q.** What about the Dissociation constant [4] of the same compound?
**A.** 0.524 µM

**Q.** And the binding [5]?
**A.** yes

**Q.** What about the binding [6] of the same compound?
**A.** yes

**Q.** What about the binding [7] of the same compound?
**A.** yes

**Q.** And the binding [8]?
**A.** yes

**Q.** With `CN(C)CCCNc1c2ccccc2nc2cccc([N+](=O)[O-])c12` as the compound, how does the binding [2, 12] read?
**A.** weak

**Q.** And the binding ([9]; presumably minor groove at centre, no defined intercalation)?
**A.** weak

**Q.** Which Dissociation constant [10] does the source give for `CN(C)CCCNc1ccc2nnn3c4ccc(O)cc4c(=O)c1c23` here?
**A.** 0.248 µM

**Q.** What about the Dissociation constant [1] of the same compound?
**A.** 0.227 µM

**Q.** And the Dissociation constant [3]?
**A.** 0.608 µM

**Q.** What about the Dissociation constant [4] of the same compound?
**A.** 0.145 µM

**Q.** What about the binding [11] of the same compound?
**A.** yes

**Q.** For `Cc1ccc([N+](=O)[O-])c2c(NCCO)c3ccccc3nc12`, which binding [2, 12] is on record?
**A.** weak

**Q.** And the binding ([9]; weaker than C-283)?
**A.** weak
